{"source": "patent US6600063B1", "about": "“Derivatives of phenyl 4-aminosalicylate and method of making the same” (priority 2000, dated 2003)", "key": {"[1]": {"system": "Mycobacterium tuberculosis H37Rv (ATCC 27294)", "experiment": "BACTEC 460 radiometric system, primary screen and MIC against M. tuberculosis H37Rv", "assay_type": "cell-based", "settings": "for MIC: Mycobacterium tuberculosis; for % Inhibition: primary screen at 12.5 or 6.25 ug/ml"}, "[2]": {"system": "Mycobacterium tuberculosis H37Rv (ATCC 27294)", "experiment": "Microplate Alamar Blue Assay (MABA), primary screen and MIC against M. tuberculosis H37Rv", "assay_type": "cell-based", "parameters": "MIC H37Rv: unit not given beside the values", "settings": "for MIC: Mycobacterium tuberculosis, M. tuberculosis H37Rv; for MIC / % Inhibition: ASSAY ALAMAR; for % Inhibition: primary screen at 12.5 or 6.25 ug/ml"}, "[3]": {"system": "M. tuberculosis Erdman (ATCC 35801) in mouse bone marrow macrophages", "experiment": "Killing of M. tuberculosis Erdman in monolayers of mouse bone marrow macrophages (EC90, EC99)", "assay_type": "cell-based, Mycobacterium tuberculosis"}, "[4]": {"system": "M. tuberculosis Erdman", "experiment": "MIC in the MABA against drug-sensitive strain Erdman", "assay_type": "cell-based", "settings": "Mycobacterium tuberculosis, read-out: MIC ERDMA (ug/ml)"}, "[5]": {"system": "M.tuberculosis (H37Rv)", "settings": "compared with 4-aminosalicylic acid; cited from earlier work"}, "[6]": {"settings": "primary screen, BACTEC, M. tuberculosis H37Rv, read-out: MIC"}}, "data": [{"smiles": "CO[C@H]1/C=C/O[C@@]2(C)Oc3c(C)c(O)c4c(O)c(c(/C=N/N5CCN(C)CC5)c(O)c4c3C2=O)NC(=O)/C(C)=C\\C=C\\[C@H](C)[C@H](O)[C@@H](C)[C@@H](O)[C@@H](C)[C@H](OC(C)=O)[C@@H]1C", "note": "[RMP, rifampin, reference compound]", "values": [{"measurement": "MIC", "setting": "[1]; reference drug in the COMMENT column of the primary screen, read-out: MIC of RMP vs. M. tuberculosis", "value": 0.25, "unit": "µg/mL"}]}, {"smiles": "O=Cc1ccc(/C=N/c2ccc(C(=O)Oc3ccccc3)c(O)c2)cc1", "note": "[SAMPLE ID 130069]", "values": [{"measurement": "MIC", "setting": "[1]; [6]", "value": "< 12.5", "unit": "µg/mL"}, {"measurement": "% Inhibition", "setting": "[1]; BACTEC, M. tuberculosis H37Rv", "value": 99, "unit": "%"}]}, {"smiles": "O=C(Oc1ccccc1)c1ccc(NC(=S)Nc2ccccc2)cc1O", "note": "[SAMPLE ID 131326]", "values": [{"measurement": "MIC", "setting": "[1]; Table 4, assay not given, read-out: MIC", "value": 0.2, "unit": "µg/mL"}, {"measurement": "MIC", "setting": "[1]; actual MIC, ASSAY BACTEC, M. tuberculosis H37Rv, read-out: MIC", "value": 0.2, "unit": "µg/mL"}, {"measurement": "MIC", "setting": "[1]; [6]", "value": "< 12.5", "unit": "µg/mL"}, {"measurement": "% Inhibition", "setting": "[1]; BACTEC, M. tuberculosis H37Rv", "value": 100, "unit": "%"}, {"measurement": "MIC H37Rv", "setting": "[2]; Table 9 strain panel, drug-sensitive strain H37Rv", "value": 1.56}, {"measurement": "EC99", "setting": "[3]; 99% reduction in colony forming units at 7 days, bactericidal activity", "value": 0.92, "unit": "µg/mL"}, {"measurement": "EC90", "setting": "[3]; Mycobacterium tuberculosis, Bone marrow macrophage, 168 h, 90% reduction in colony forming units at 7 days, bacteriostatic activity", "value": 0.203, "unit": "µg/mL"}, {"measurement": "MIC", "setting": "[4]", "value": 0.2, "unit": "µg/mL"}]}, {"smiles": "O=C(Oc1ccccc1)c1ccc(/N=C/c2ccc([N+](=O)[O-])cc2)cc1O", "note": "[SAMPLE ID 133652]", "values": [{"measurement": "MIC", "setting": "[1]; actual MIC, ASSAY BACTEC, M. tuberculosis H37Rv", "value": 0.1, "unit": "µg/mL"}, {"measurement": "MIC", "setting": "[1]; primary screen, BACTEC, M. tuberculosis H37Rv", "value": "< 12.5", "unit": "µg/mL"}, {"measurement": "% Inhibition", "setting": "[1]; BACTEC, M. tuberculosis H37Rv", "value": 97, "unit": "%"}]}, {"smiles": "CCC(=O)Nc1ccc(C(=O)Oc2ccccc2)c(OC(=O)CC)c1", "note": "[SAMPLE ID 138392]", "values": [{"measurement": "MIC", "setting": "[2]", "value": 0.39, "unit": "µg/mL"}, {"measurement": "% Inhibition", "setting": "[2]", "value": 94, "unit": "%"}]}, {"smiles": "O=C(Oc1ccccc1)c1ccc(/C=N/c2ccccc2[N+](=O)[O-])cc1O", "note": "[SAMPLE ID 139235]", "values": [{"measurement": "MIC", "setting": "[2]", "value": 0.025, "unit": "µg/mL"}, {"measurement": "% Inhibition", "setting": "[2]", "value": 97, "unit": "%"}]}, {"smiles": "Nc1ccc(C(=O)Oc2ccccc2)c(O)c1", "note": "[phenyl 4-aminosalicylate]", "values": [{"measurement": "destruction of the virulent strain of M.tuberculosis (H37Rv)", "setting": "[5]", "value": "even better than 4-aminosalicylic acid"}]}]}
